Columns and labels:
[1] = tested on: Staphylococcus aureus OCC 102; experiment: growth on nutrient agar streak plates, pure culture (Example 5); type: cell-based; settings: S. aureus OCC 102, nutrient agar, 0-10 mM tested
From the text: Example 1 was repeated using Staphylococcus aureus OCC 102 as the test organism.

S. aureus OCC 102 = experiment: growth on nutrient agar, mixed culture with E. faecalis (Example 7); type: cell-based, Staphylococcus aureus; settings: S. aureus in mixed culture with E. faecalis
From the text: Example 6 was repeated, this time using a mixed culture of S. aureus OCC 102 and E. faecalis OCC 604, in the presence of AEP or alaphosphin. The empty columns represent growth of S. aureus, the shaded columns represent growth of E. faecalis. […] Thus alaphosphin could be used, when incorporated at an appropriate concentration in a medium, to inhibit growth of organisms such as Enterococci in samples whilst allowing Staphylococci to grow and be detected.

[2] = tested on: Klebsiella pneumoniae CMCC3077; experiment: total viable count in Nutrient Broth (Example 10); type: cell-based; settings: 5 mM in Nutrient Broth, within a 4 hour period
Description: Growth curve data on the activity of alaphosphin towards Klebsiella spp. was generated. Particular attention was paid to measuring the kinetics of inhibition in broth culture. The media used in this work were Buffered Peptone Water, Nutrient Broth and Tryptone Soya Agar. The media were prepared according to the manufacturer's instructions.
The selective agents, AEP (Cat. No. 06655) and alaphosphin (Cat. No. 05260), were supplied by Fluka. They were dissolved in water at 0.5M concentration, filter-sterilised, and 100 μl added to 10 ml of Nutrient Broth to give a final concentration in the test medium of 5 mM of AEP or alaphosphin respectively.
Klebsiella pneumnoniae CMCC3077 was chosen, as it is a food isolate and work had been carried out previously on this organism using alaphosphin and AEP (see preceding examples). The organism was inoculated into Nutrient Broth and incubated overnight at 37° C. […] The test media were incubated at 37° C., and sampled at hourly intervals. The cultures were serially diluted in Buffered Peptone Water and inoculated onto Tryptone Soya Agar. These plates were incubated overnight at 37° C. and the total viable count made the next day.
Typical results are shown in FIG. 15 which is a graph of total viable count (log10 cfu/ml) against time (hours).

C[C@H](N)C(=O)N[C@@H](C)P(=O)(O)O [alaphosphin, L-alanyl-L-1-aminoethylphosphonic acid]
concentration at which growth is completely inhibited [1]: 10 mM
concentration at which growth is inhibited (S. aureus OCC 102): ≥ 10 mM
reduction in the viable count [2]: two to three log reduction
